# Data published in ChEMBL document CHEMBL5584248, “Synthesis and biological characterization of an orally bioavailable lactate dehydrogenase-A inhibitor against pancreatic cancer” (Eur J Med Chem, 2024).
# What was measured:
# [1] = target: L-lactate dehydrogenase A chain (Homo sapiens, UniProt P00338); test: Inhibition of human LDH-A incubated for 10 mins in presence of […] by fluorescence based reader assay
# [2] = target: L-lactate dehydrogenase B chain (Homo sapiens, UniProt P07195); test: Inhibition of human LDH-B incubated for 10 mins in presence of […] by fluorescence based reader assay
# Chain of L-lactate dehydrogenase B chain (P07195 whole entry): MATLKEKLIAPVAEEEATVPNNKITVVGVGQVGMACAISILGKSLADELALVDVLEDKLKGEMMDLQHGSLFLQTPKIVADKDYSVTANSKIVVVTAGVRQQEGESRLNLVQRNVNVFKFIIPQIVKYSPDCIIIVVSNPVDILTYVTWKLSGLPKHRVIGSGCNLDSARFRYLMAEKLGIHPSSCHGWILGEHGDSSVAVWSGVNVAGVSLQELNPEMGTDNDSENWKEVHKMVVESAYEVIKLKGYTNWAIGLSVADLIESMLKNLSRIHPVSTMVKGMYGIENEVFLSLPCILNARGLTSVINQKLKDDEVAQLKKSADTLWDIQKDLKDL
# [3] = Cmax in CD1 mouse at 5 mg/kg, po; assay type: ADME, organism-based; settings: in vivo
# MIA PaCa-2 = test: Antiproliferative activity against human MIA PaCa-2 cells incubated for 48 hrs by Hoechst 33342 and SYTOX green staining based confocal imaging analysis; assay type: functional, cell-based; settings: MIA PaCa-2, 48 h
# [4] = Drug metabolism in mouse assessed as tmax of 4-((4-(1-methyl-1H-imidazole-2-carbonyl)phenyl)amino)-4-oxo-2-(4-(trifluoromethyl)phenyl)butanoic acid at 1 mg/kg, iv; assay type: ADME, organism-based; settings: in vivo
# [5] = AUC(0 to infinity) in CD1 mouse at 5 mg/kg, po; assay type: ADME, organism-based; settings: in vivo
# [6] = Drug metabolism in mouse assessed as half-life of 4-((4-(1-methyl-1H-imidazole-2-carbonyl)phenyl)amino)-4-oxo-2-(4-(trifluoromethyl)phenyl)butanoic acid at 5 mg/kg, po; assay type: ADME, organism-based; settings: in vivo
# [7] = Tmax in CD1 mouse at 5 mg/kg, po; assay type: ADME, organism-based; settings: in vivo
# [8] = Half-life in CD1 mouse at 5 mg/kg, po; assay type: ADME, organism-based; settings: in vivo
# PANC-1 = test: Antiproliferative activity against human PANC-1 cells incubated for 48 hrs by Hoechst 33342 and SYTOX green staining based confocal imaging analysis; assay type: functional, cell-based; settings: PANC-1, 48 h
# [9] = Cmax in CD1 mouse at 1 mg/kg, iv; assay type: ADME, organism-based; settings: in vivo
# [10] = Drug metabolism in mouse assessed as AUC(0 to infinity) of 4-((4-(1-methyl-1H-imidazole-2-carbonyl)phenyl)amino)-4-oxo-2-(4-(trifluoromethyl)phenyl)butanoic acid at 1 mg/kg, iv; assay type: ADME, organism-based; settings: in vivo
# [11] = Clearance in CD1 mouse at 1 mg/kg, iv; assay type: ADME, organism-based; settings: CD1, mouse, in vivo
# [12] = Volume of distribution in CD1 mouse at 1 mg/kg, iv; assay type: ADME, organism-based; settings: in vivo
# [13] = Antiproliferative activity against mouse FC-1199 cells incubated for 48 hrs by Hoechst 33342 and SYTOX green staining based confocal imaging analysis; assay type: functional, cell-based; settings: FC-1199, 48 h
# [14] = Drug metabolism in mouse assessed as metabolite 4-((4-(1-methyl-1H-imidazole-2-carbonyl)phenyl)amino)-4-oxo-2-(4-(trifluoromethyl)phenyl)butanoic acid cumulative half-life by LC-MS/MS analysis; assay type: ADME
# [15] = Drug metabolism in mouse assessed as Cmax of 4-((4-(1-methyl-1H-imidazole-2-carbonyl)phenyl)amino)-4-oxo-2-(4-(trifluoromethyl)phenyl)butanoic acid at 5 mg/kg, po; assay type: ADME, organism-based; settings: in vivo
# [16] = Drug metabolism in mouse assessed as AUC(0 to infinity) of 4-((4-(1-methyl-1H-imidazole-2-carbonyl)phenyl)amino)-4-oxo-2-(4-(trifluoromethyl)phenyl)butanoic acid at 5 mg/kg, po; assay type: ADME, organism-based; settings: in vivo
# [17] = Cytotoxicity against HPNEs incubated for 48 hrs by Hoechst 33342 and SYTOX green staining based confocal imaging analysis; assay type: toxicity, cell-based; settings: human, HPNE cells
# [18] = Oral bioavailability in CD1 mouse at 5 mg/kg; assay type: ADME, organism-based; settings: in vivo
# [19] = Drug metabolism in mouse assessed as tmax of 4-((4-(1-methyl-1H-imidazole-2-carbonyl)phenyl)amino)-4-oxo-2-(4-(trifluoromethyl)phenyl)butanoic acid at 5 mg/kg, po; assay type: ADME, organism-based; settings: in vivo
# [20] = AUC(0 to infinity) in CD1 mouse at 1 mg/kg, iv; assay type: ADME, organism-based; settings: in vivo
# [21] = Drug metabolism in mouse assessed as half-life of 4-((4-(1-methyl-1H-imidazole-2-carbonyl)phenyl)amino)-4-oxo-2-(4-(trifluoromethyl)phenyl)butanoic acid at 1 mg/kg, iv; assay type: ADME, organism-based; settings: in vivo
# [22] = Half-life in CD1 mouse at 1 mg/kg, iv; assay type: ADME, organism-based; settings: in vivo
# [23] = Drug metabolism in mouse assessed as Cmax of 4-((4-(1-methyl-1H-imidazole-2-carbonyl)phenyl)amino)-4-oxo-2-(4-(trifluoromethyl)phenyl)butanoic acid at 1 mg/kg, iv; assay type: ADME, organism-based; settings: in vivo
structure (smiles),measurement,setting,value
COC(=O)C(CC(=O)Nc1ccc(N2CCN(C)CC2)cc1)c1ccc(C(F)(F)F)cc1 (stereo not given),IC50,[1],66.4 µM
Cn1ccnc1C(=O)c1ccc(NC(=O)CC(C(=O)O)c2ccc(Cl)cc2)cc1 (stereo not given),IC50,[1],0.19 µM
COC(=O)C(CC(=O)Nc1ccc(C(=O)c2nccn2C)cc1)c1ccccc1 (stereo not given),IC50,[1],2.49 µM
Cn1ccnc1C(=O)c1ccc(NC(=O)CC(C(=O)O)c2csc(-c3ccccc3)n2)cc1 (stereo not given),IC50,[1],29.9 µM
O=C(O)CC(NC(=O)Cc1ccc(C(F)(F)F)cc1)c1cccc(Cl)c1 (stereo not given),IC50,[1],> 100 µM
same,IC50,[2],> 100 µM
COC(=O)C(CC(=O)Nc1ccc(C(=O)c2nccn2C)cc1)c1ccc(C(F)(F)F)cc1 (stereo not given),Cmax,[3],480 nM
same,IC50,MIA PaCa-2,25.6 µM
same,Tmax,[4],0.5 h
same,AUC(0-inf),[5],0.551 µM·h
same,t1/2,[6],2.92 h
same,Tmax,[7],0.25 h
same,half-life,[8],1.63 h
same,IC50,PANC-1,23.9 µM
same,Cmax,[9],1020 nM
same,AUC,[10],4.04 µM·h
same,clearance,[11],110 mL/min/kg
same,Vd,[12],10 L/kg
same,IC50,[13],12.1 µM
same,t1/2,[14],4.5 h
same,Cmax,[15],9760 nM
same,AUC,[16],25.96 µM·h
same,IC50 at 48 h,[17],49.5 µM
same,F,[18],73%
same,Tmax,[19],0.5 h
same,AUC(0-inf),[20],0.328 µM·h
same,t1/2,[21],2.18 h
same,half-life,[22],1.19 h
same,Cmax,[23],1010 nM
O=C(O)CC(NC(=O)c1ccccc1Cl)c1cccc(Cl)c1 (stereo not given),IC50,[1],> 100 µM
same,IC50,[2],> 100 µM
O=C(CC(C(=O)O)c1ccc(C(F)(F)F)cc1)Nc1ccc(C(=O)c2ccccc2)cc1 (stereo not given),IC50,[1],79.3 µM
COC(=O)C(CC(=O)Nc1ccc(Cl)nn1)c1ccc(C(F)(F)F)cc1 (stereo not given),IC50,[1],> 100 µM
same,IC50,[2],> 100 µM
COc1ccc(C(CC(=O)Nc2ccc(C(=O)c3nccn3C)cc2)C(=O)O)cc1 (stereo not given),IC50,[1],54.5 µM
